Patent US7550459B2, “Tetrahydroquinoline analogues as muscarinic agonists” (Acadia Pharmaceuticals, Inc., priority 2001, dated 2009)
Read-outs that look alike come from different tables or passages of the source.

Legend:
[1] = molecular target: T1, M2 muscarinic receptor (Homo sapiens, UniProt P08172); test: Receptor Selection and Amplification (R-SAT) assay, cloned M2 receptor; assay type: cell-based; parameters: M2 Eff: scale not given here
T1 construct: expressed in transfected cells
T1 sequence (P08172 1-466): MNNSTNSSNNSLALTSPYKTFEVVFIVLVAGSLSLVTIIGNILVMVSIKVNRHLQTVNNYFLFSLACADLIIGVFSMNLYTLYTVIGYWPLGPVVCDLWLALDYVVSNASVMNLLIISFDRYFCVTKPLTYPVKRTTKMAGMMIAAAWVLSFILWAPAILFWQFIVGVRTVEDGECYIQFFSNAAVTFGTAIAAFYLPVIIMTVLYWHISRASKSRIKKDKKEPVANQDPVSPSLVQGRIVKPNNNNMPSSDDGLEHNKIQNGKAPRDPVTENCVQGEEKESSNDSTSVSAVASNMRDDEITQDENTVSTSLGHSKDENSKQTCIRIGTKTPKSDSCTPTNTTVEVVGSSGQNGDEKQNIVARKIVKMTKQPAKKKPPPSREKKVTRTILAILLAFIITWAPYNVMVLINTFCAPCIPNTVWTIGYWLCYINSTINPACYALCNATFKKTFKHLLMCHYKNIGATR
Description: (§1) The EC50 for an agonist is intended to denote the concentration of a compound needed to achieve 50% of a maximal response seen in an in vitro assay such as R-SAT. For inverse agonists, EC50 is intended to denote the concentration of a compound needed to achieve 50% inhibition of an R-SAT response from basal, no compound, levels.
(§2) A particularly convenient functional assay system is the receptor selection and amplification assay (R-SAT assay) in U.S. Pat. No. 5,707,798, which describes a method of screening for bioactive compounds by utilizing the ability of cells transfected with receptor DNA, e.g., coding for the different muscarinic subtypes, to amplify in the presence of a ligand of the receptor. Cell amplification is detected as increased levels of a marker also expressed by the cells.
(§3) Receptor Selection and Amplification (R-SAT) assays were carried out using the cloned M1-M5 receptors essentially as described in: Brauner-Osborne H, Brann M R. Pharmacology of muscarinic acetylcholine receptor subtypes (m1-m5): high throughput assays in mammalian cells. Eur J Pharmacol Jan. 4, 1996;295(1):93-102, and Spalding T A, Trotter C, Skjaerbaek N, Messier T L, Currier E A, Burstein E S, Li D, Hacksell U, Brann M R. Discovery of an ectopic activation site on the M(1) muscarinic receptor. Mol Pharmacol. 2002 June;61(6):1297-302.

[2] = molecular target: T2, M1 muscarinic receptor (Homo sapiens, UniProt P11229); test: Receptor Selection and Amplification (R-SAT) assay, cloned M1 receptor; assay type: cell-based; parameters: M1 Eff: scale not given here; settings: for Emax: read-out: m1 % Efficacy
T2 construct: expressed in transfected cells
T2 sequence (P11229 1-460): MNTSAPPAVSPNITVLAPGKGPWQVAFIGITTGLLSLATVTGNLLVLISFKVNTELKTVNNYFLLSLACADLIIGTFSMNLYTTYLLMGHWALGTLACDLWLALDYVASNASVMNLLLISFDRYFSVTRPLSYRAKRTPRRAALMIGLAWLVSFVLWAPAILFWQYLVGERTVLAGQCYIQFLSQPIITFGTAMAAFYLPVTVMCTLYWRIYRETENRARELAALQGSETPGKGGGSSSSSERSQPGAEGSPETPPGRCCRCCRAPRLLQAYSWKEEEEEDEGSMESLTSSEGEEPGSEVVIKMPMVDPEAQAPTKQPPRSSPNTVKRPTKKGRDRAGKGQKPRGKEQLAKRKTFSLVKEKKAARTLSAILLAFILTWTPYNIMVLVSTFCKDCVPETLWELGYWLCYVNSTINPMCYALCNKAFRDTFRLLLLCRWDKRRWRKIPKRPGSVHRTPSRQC
Description: as §1, §2, §3

[3] = R-SAT, second table (COMPOUND ID series)
[4] = R-SAT, second table (COMPOUND ID series), read-out: M2 pEC50 (converted)
[5] = R-SAT, second table (COMPOUND ID series), read-out: M1 pEC50 (converted)
[6] = M2 pEC50, R-SAT, second table (COMPOUND ID series)
[7] = M1 pEC50, R-SAT, second table (COMPOUND ID series)
[8] = R-SAT, cloned m1 receptor, read-out: m1 pEC50 (converted)
[9] = m1 pEC50, R-SAT, cloned m1 receptor

EC50 [2, 5] [nM] | SMILES | M2 Eff [1, 3] | M1 Eff [2, 3] | EC50 [2, 7] [nM] | further results
– | CCCC=C1CCN(C[C@@H](C)CN2C(=O)COc3ccc(OC)cc32)CC1 (racemic) [Compound 107LH74-3D, (R,S)-4-[3-(4-Butylidenepiperidin-1-yl)-2-methylpropyl]-6-methoxy-4H-benzo[1,4]oxazin-3-one] | – | – | – | m1 % Efficacy ([2]; R-SAT, cloned m1 receptor): 97%; m1 pEC50 ([2]; R-SAT, cloned m1 receptor): 8.0
158 | CC(CN1CCC(OCC2CCC2)CC1)CN1C(=O)COc2ccccc21 (racemic) [Compound 00262197, 4-[(R,S)-3-(4-Cyclobutylmethoxypiperidin-1-yl)-2-methylpropyl]-4H-benzo[1.4]oxazin-3-one] | 28 | 122 | – | EC50 [1, 4]: 2510 nM
3980 | CC(CN1CCC(OC(=O)OCC2CCC2)CC1)CN1C(=O)COc2ccccc21 (racemic) [Compound 00262198, carbonic acid cyclobutylmethyl ester 1-[(R,S)-2-methyl-3-(3-oxo-2,3-dihydrobenzo[1.4]oxazin-4-yl)propyl]piperidine-4-yl ester] | – | 48 | – | –
– | CC(CN1C(=O)COc2ccccc21)CN1[C@@H]2CC[C@H]1C[C@@H](OCC1CC1)C2 (mixture of isomers) [Compound 00262573, (R,S)-4-[3-(3a-Cyclopropylmethoxy-8-azabicyclo[3.2.1]oct-8-yl)-2-methylpropyl]-4H-benzo[1.4]oxazin-3-one] | 72 | 120 | 3.98 | EC50 [1, 6]: 50.1 nM
79.4 | COC(CN1CCC(OCC2CC2)CC1)CN1C(=O)COc2cc(F)ccc21 (racemic) [Compound 00262784, (R,S)-4-[3-(4-Cyclopropylmethoxypiperidin-1-yl)-2-methoxypropyl]-7-fluoro-4H-benzo[1.4]oxazin-3-one] | 71 | 94 | – | EC50 [1, 4]: 2000 nM
79.4 | CCc1cccc2c1OCC(=O)N2CC(C)CN1CCC(OCC2CC2)CC1 (racemic) [Compound 00262867, (R,S)-4-[3-(4-Cyclopropylmethoxypiperidin-1-yl)-2-methylpropyl]-8-ethyl-4H-benzo[1,4]oxazin-3-one] | 32 | 104 | – | EC50 [1, 4]: 1580 nM
– | CCON=C1CC2CCC(C1)N2C[C@@H](C)CN1C(=O)COc2ccccc21 (single isomer, unassigned) [Compound 00261434] | 50 | 110 | 631 | EC50 [1, 6]: 2000 nM
– | CCOCCC1CC2CCC(C1)N2CC(C)CN1C(=O)COc2ccccc21 (single isomer, unassigned) [Compound 00262993] | – | 55 | 79.4 | –
– | CCOCCC1CC2CCC(C1)N2CC(C)CN1C(=O)COc2ccccc21 (single isomer, unassigned) [Compound 00262998] | 56 | 102 | 7.94 | EC50 [1, 6]: 398 nM
– | CCCCC1CCN(CCCN2CCCc3ccc(C(F)(F)F)cc32)CC1 [Compound 55LH54, 1-[3-(4-Butyl-piperidin-1-yl)-propyl]-7-trifluoromethyl-12.3.4-tetrahydro-quinoline] | – | – | – | Emax ([2]; R-SAT, cloned m1 receptor): 57%; EC50 [2, 8]: 398 nM
– | CCCCC1CCN(CCCN2C(=O)COc3ccc(C(C)=O)cc32)CC1 [Compound 64LHY89-5, 6-Acetyl-4-[3-(4-butyl-piperidin-1-yl)-propyl]-4H-benzo[1,4]oxazin-3-one] | – | – | – | Emax ([2]; R-SAT, cloned m1 receptor): 45%; EC50 [2, 8]: 2510 nM
– | CCCC=C1CC2CCC(C1)N2CCCN1C(=O)COc2ccccc21 [Compound 81MF24, 4-[3-(3-Butylidene-8-aza-bicyclo[3.2.1]oct-8-yl)-propyl]-4H-benzo[1,4]oxazin-3-one] | – | – | – | EC50 ([1]; m2 pEC50, R-SAT, cloned m2 receptor): 100 nM; Emax ([1]; read-out: m2 % Efficacy): 70%; EC50 [2, 9]: 15.8 nM; Emax [2]: 96%
– | CCCCC1CCN(CCCN2C(=O)CCc3c2ccc(F)c3C)CC1 [Compound 107LH95-1, 1-[3-(4-Butyl-piperidin-1-yl)propyl]-6-fluoro-5-methyl-3,4-dihydro-1H-quinolin-2-one] | – | – | – | Emax ([2]; R-SAT, cloned m1 receptor): 103%; EC50 [2, 8]: 25.1 nM
– | CCCCCC1CC2CC[C@@H](C1)N2C[C@@H](C)CN1C(=O)COc2cc(F)ccc21 (stereo partly drawn) [Compound 112KK20-c5, (R,S)-7-Fluoro-4-[2-methyl-3-(3-pentyl-8-azabicyclo[3.2.1]oct-8-yl)propyl]-4H-benzo[1,4]oxazin-3-one] | – | – | – | EC50 [2, 9]: 5.01 nM; Emax [2]: 117%
– | O=C1CCc2cc(F)c(F)cc2N1CCCN1C2CCC1CC(=CCOCC1CC1)C2 [Compound 00262356, 1-{3-[3-(2-Cyclopropylmethoxyethylidene)-8-azabicyclo[3.2.1]oct-8-yl]-propyl}-6,7-difluoro-3,4-dihydro-1H-quinolin-2-one] | – | 46 | 31.6 | –
– | CC(CN1C(=O)COc2ccccc21)CN1C2CCC1CC(=CCOCC1CC1)C2 [Compound 00262357, 4-{(R,S)-3-[3-(2-Cyclopropylmethoxyethylidene)-8-aza-bicyclo[3.2.1]oct-8-yl]-2-methylpropyl}-4H-benzo[1.4]oxazin-3-one] | – | 79 | 12.6 | –
794 | O=C1COc2cc(F)cc(F)c2N1CCCN1CCC(OCC2CC2)CC1 [Compound 00262471, 4-[3-(4-Cyclopropylmethoxypiperidin-1-yl)propyl]-5,7-difluoro-4H-benzo[1,4]oxazin-3-one] | – | 86 | – | –
631 | O=C1COc2ccc(F)c(F)c2N1CCCN1CCC(OCC2CC2)CC1 [Compound 00262696, 4-[3-(4-Cyclopropylmethoxypiperidin-1-yl)propyl]-5,6-difluoro-4H-benzo[1,4]oxazin-3-one] | – | 83 | – | –
1580 | O=C1COc2c(F)ccc(F)c2N1CCCN1CCC(OCC2CC2)CC1 [Compound 00262869, 4-[3-(4-Cyclopropylmethoxypiperidin-1-yl)propyl]-5,8-difluoro-4H-benzo[1,4]oxazin-3-one] | – | 32 | – | –
631 | O=C1COc2c(F)cc(F)cc2N1CCCN1CCC(OCC2CC2)CC1 [Compound 00262874] | – | 87 | – | –
– | CCOCC[C@@H]1C[C@H]2CC[C@@H](C1)N2C[C@H](C)CN1C(=O)COc2ccccc21 [Compound 00263034, (S)-4-{3-[3β-(2-Ethoxyethyl)-8-azabicyclo[3.2.1]oct-8-yl]-2-methylpropyl}-4H-benzo[1.4]oxazin-3-one] | – | 68 | 158 | –
– | COCC[C@H]1C[C@H]2CC[C@@H](C1)N2C[C@H](C)CN1C(=O)COc2ccccc21 [Compound 00263035, (S)-4-{3-[3a-(2-Methoxyethyl)-8-azabicyclo[3.2.1]oct-8-yl]-2-methylpropyl}-4H-benzo[1.4]oxazin-3-one] | – | 97 | 251 | –

SMILES | EC50 [2, 5] [nM] | M2 Eff [1, 3] | M1 Eff [2, 3] | EC50 [2, 7] [nM] | further results
C[C@@H](CN1C(=O)COc2ccccc21)CN1[C@@H]2CC[C@H]1CC(=NOCC1CC1)C2 (mixture of isomers) [Compound 00261537, 4-[3-(3-Cyclopropylmethoxyimino-8-aza-bicyclo[3.2.1]oct-8-yl)-2(R)-methyl-propyl]-4H-benzo[1,4]oxazin-3-one] | 126 | 58 | 126 | – | EC50 [1, 4]: 794 nM
